Source: patent US20110124086A1, “Hepatitis C Virus Culture System” (The Regents of the University of California, priority 2009, published 2011)

Tests used:
Format in all cases: cell-based, Hepatitis C virus
HCV genotype 1b (CG1b) = assay: HCV infectivity of medium from Jak2 inhibitor II-treated FH-CG1bRbz cells inoculated on Huh7 cells, HCV RNA by qRT-PCR; settings: HCV RNA after 48 hrs, later passage FH cell culture medium
Method: (§1) Cg1bRbz cells were treated with C5 (1 μM) or Jak2 inhibitor II (10 and 50 μM) for 48 or 96 hrs and analyzed for intracellular HCV RNAs by qRT-PCR. Huh7 cells transfected with JFH1 RNA were also used as a control. Bottom right—Huh7 cells were inoculated with virus samples prepared from control and Jak2 inhibitor II-treated later passage FH cell culture medium and analyzed for HCV RNA after 48 hrs by qRT-PCR.
(§2) Huh7 human hepatoma cells were transfected with in vitro-transcribed JFH1 RNA and cultured, as previously described (Choi et al. (2004) Hepatology 39:91-9). Telomerase-reconstituted primary human hepatocytes were transfected with pEF-CG1 bRbz/Neo, pEF-CG1 bGNDRbz/Neo, or control EF-driven vector alone as described for Huh7, and cell clones that are stably transfected with these constructs were selected and maintained in G418-containing medium (Invitrogen) (Wege et al. (2004) Gastroenterology 124:432-44). […]
(§3) HCV RNA was quantified by quantitative reverse transcriptase polymerase chain reaction (qRT-PCR) as described. […]
(§4) It was then examined whether suppressing the hepatocyte innate immunity by inhibiting Jak/Stat pathway and/or PKR could increase the HCV titer in Applicants' FH cell clones and therefore, increase the infectivity of CG1b. HCV RNA level was analyzed in FH-CG1 bRbz cells after 48 or 96 hr incubation with C5, an inhibitor of PKR, or Jak2 Inhibitor II.

[1] = tested on: HCV genotype 1b (CG1b) in FH-CG1bRbz cells; assay: Effect of PKR and Jak2 inhibitor on intracellular HCV RNA in FH-CG1bRbz cells, qRT-PCR; settings: C5 1 μM or Jak2 inhibitor II 10 and 50 μM, 48 or 96 hr incubation
Method: as §1
HCV RNA was quantified by quantitative reverse transcriptase polymerase chain reaction (qRT-PCR) as described. Intracellular HCV RNA levels were normalized by glyceraldehydes 3-phosphate dehydrogenase mRNA content. Standard curves were generated using in vitro-transcribed HCV RNA's. Control reactions containing no reverse transcriptase were also carried out as controls. HCV protein levels were visualized by immunofluorescence staining followed by confocal microscopy. […]
as §4

[2] = tested on: JFH1 (HCV genotype 2a) in Huh7 cells; assay: Effect of PKR and Jak2 inhibitor on intracellular HCV RNA in Huh7 cells transfected with JFH1 RNA, qRT-PCR; settings: C5 1 μM or Jak2 inhibitor II 10 and 50 μM, 48 or 96 hrs
Method: as §1, §2, §3, §4

[3] = tested on: HCV of genotype 1b (CG1b); assay: Antiviral activity of IFNα in Huh7 cells infected with FH-CG1bRbz hepatocyte-derived medium, HCV RNA by qRT-PCR; settings: IFNα 100 U/ml once, 48 hrs after infection, analysed after 24 hrs
Method: Huh7 cells were infected with hepatocyte-derived medium. Then, after 48 hrs, cells were treated with 0 or 100 U/ml of IFNα once and analyzed for HCV RNA by qRT-PCR after 24 hrs. N.D. indicates not detectable or below the level of detection.
Huh7 human hepatoma cells were transfected with in vitro-transcribed JFH1 RNA and cultured, as previously described (Choi et al. (2004) Hepatology 39:91-9). Telomerase-reconstituted primary human hepatocytes were transfected with pEF-CG1 bRbz/Neo, pEF-CG1 bGNDRbz/Neo, or control EF-driven vector alone as described for Huh7, and cell clones that are stably transfected with these constructs were selected and maintained in G418-containing medium (Invitrogen) (Wege et al. (2004) Gastroenterology 124:432-44). For virus infection, the extracellular medium from JFH1-transfected cells and CG1b transfected cell clones was cleared by low speed centrifugation at 5,000 rpm for 10 min and concentrated ˜10 fold by ultracentrifugation at 21,000 rpm for 6.5 hrs at 4° C. The medium was also pre-treated with RNase (and also with DNase for CG1b medium) for 30 min at room temperature prior to these centrifugation steps. Then, the concentrated virus samples were used to inoculate naïve Huh7 or Huh7.5 cells (Wakita et al. (2005) Nat. Med. 11:791-6). […]
as §3

Compound | HCV infectivity of medium from Jak2 inhibited FH-CG1bRbz cells compared to medium from control cells (HCV genotype 1b (CG1b)) | intracellular HCV RNA in FH-CG1bRbz cells [1] | intracellular HCV RNA in Huh7 cells transfected with JFH1 RNA [2] | HCV titer (HCV RNA) in CG1b-infected Huh7 cells [3] | HCV titer (HCV RNA) in CG1b-infected Huh7 cells ([3]; listed as interferon alpha)
BrC1C(Br)C(Br)C(Br)C(Br)C1Br (centres unmarked) [Jak2 Inhibitor II] | increased only modestly | intracellular HCV RNA increased | an increase in the intracellular HCV RNA | – | –
interferon alpha [IFNα] | – | – | – | decreased HCV titer | decreased
